Experimental findings from ChEMBL document CHEMBL4364298 are described below.

The source made the active and inactive calls. The calls are words filed in the database; no cut-off is given here.

For the experiment, the target named is Histamine H1 receptor (Homo sapiens) (UniProt P35367). The experiment in a line: Antagonist activity at H1R in human HeLa cells assessed as inhibition of histamine-induced intracellular calcium mobilization at 10 times Ki incubated for 18 to 20 hrs prior to Fluo-4NW dye addition for 1 hr followed by compound washout and subsequent stimulation with histamine at 5 mins interval and measured up to 2 hrs by fluorescence assay. It is filed as functional, cell-based.
Chain of Histamine H1 receptor (Homo sapiens) (P35367 whole entry): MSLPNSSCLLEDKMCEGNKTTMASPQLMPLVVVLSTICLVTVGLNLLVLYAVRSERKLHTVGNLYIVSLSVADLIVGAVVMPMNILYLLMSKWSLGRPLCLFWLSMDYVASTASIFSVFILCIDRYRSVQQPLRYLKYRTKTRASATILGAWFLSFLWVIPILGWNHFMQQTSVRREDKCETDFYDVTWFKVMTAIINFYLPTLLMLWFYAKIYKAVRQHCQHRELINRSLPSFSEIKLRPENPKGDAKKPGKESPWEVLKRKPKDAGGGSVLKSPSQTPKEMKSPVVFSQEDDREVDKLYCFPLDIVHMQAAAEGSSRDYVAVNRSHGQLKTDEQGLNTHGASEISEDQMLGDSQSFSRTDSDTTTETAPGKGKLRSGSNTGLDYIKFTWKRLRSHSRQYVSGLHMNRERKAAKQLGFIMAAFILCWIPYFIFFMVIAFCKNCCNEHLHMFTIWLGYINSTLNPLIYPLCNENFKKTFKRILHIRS
By inhibition is commonly meant how much of the control response was suppressed. For the molecule `Clc1ccc2c(c1)CCc1cccnc1C2=C1CCN(CC2CCCC2)CC1`, the inhibition turned out to be 100%.
To `Clc1ccc2c(c1)CCc1cccnc1C2=C1CCN(CC2CC2)CC1` belongs 100%.
For `Cc1cncc(CN2CCC(=C3c4ccc(Cl)cc4CCc4cccnc43)CC2)c1` the value was “Active”; for `Clc1ccc2c(c1)CCc1cccnc1C2=C1CCN(CC2CCC2)CC1`, 100%.
